Source: the RepoRT retention time repository

Assay: Agilent ZORBAX 300 SB-C18, 150 × 1 mm, 3.5 µm; A: water + 0.01% heptafluorobutyric acid; B: acetonitrile + 0.01% heptafluorobutyric acid; gradient (min/%B) 0/0 100/90
Conditions: stereoisomer not certain

| Structure (SMILES) | LC retention time [min] |
| --- | --- |
| CCCCCCCCCCCCC(N)=O | 18.2 |
| CN(C)CCN | 6.51 |
| O=C(Nc1cccnc1)c1cnccn1 | 7.28 |
| C#CC1(N)CCCCC1 | 7.77 |
| CNC(C)(C)Cc1ccccc1 | 8.99 |
| O=C(c1ccc(CN2CCc3ccccc3C2)cc1)N(Cc1ccccc1)Cc1ccccc1 | 12.5 |
| CCOC(=O)C=CC(=O)NNC(=O)C(c1ccccc1)c1ccccc1 | 12.8 |
| O=P(O)(O)CN(CCN(CP(=O)(O)O)CP(=O)(O)O)CP(=O)(O)O | 1.09 |
| CCOC(=O)C1(c2ccccc2)CCN(C)CC1 | 9.81 |
| Cc1cc(C)nc(Nc2n[nH]c(C)n2)n1 | 8.05 |
| CCNC(=O)CC(=O)NCC | 5.95 |
| COc1cccc(C2(O)CCCCC2CN(C)C)c1 (stereo not given) | 9.38 |
| CCN(CC)CCNC(=O)c1ccccc1NC(=O)Nc1ccccc1 | 9.62 |
| CC(=O)Nc1ccc(O)cc1 | 6.65 |
| NCC1(O)CCCCC1 | 7.06 |
| CCCCCCCCCC(=O)NCCCCC(=O)O | 13.5 |
| Cc1cc(=O)[nH]c(N=C(N)N2CCOCC2)n1 | 6.89 |
| CC(=O)Nc1ccc(CCC(=O)O)cc1 | 7.92 |
| Cc1[nH]c(-c2ccccc2)c(-c2ccccc2)c1C(=O)OCc1ccccc1 | 18.2 |
| CC(C)(C)c1ccc(C(=O)NCc2ccccc2)o1 | 14.8 |
| Cc1cc(C)c2c(=O)n(CC(=O)NC(C)CCc3ccccc3)c(=O)n(-c3ccccc3)c2n1 (stereo not given) | 15.7 |

| Structure (SMILES) | LC retention time [min] |
| --- | --- |
| O=C(Cc1ccccc1)Nc1ccc(-c2nc(-c3ccccc3)c3cc(NC(=O)Cc4ccccc4)ccc3n2)cc1 | 17.8 |
| CC(C)c1ccc(C=NNC(N)=S)cc1 | 12.8 |
| COc1ccc(NC(=O)Nc2ccc(OCC(=O)N3CCOCC3)cc2)cc1 | 10 |
| O=C1CCNC2CCCCC12 (stereo not given) | 6.79 |
| CCSc1cccc2cccnc12 | 11.7 |
| CCOC(=O)c1c(C)n(C2CCCCC2)c2ccc(OC(C)=O)cc12 | 17.8 |
| CN(C)C(=O)C1OC(C)(C)OC1C(=O)N(C)C (stereo not given) | 8.25 |
| COc1cc(N2C=C3N=C(c4ccccc4)NN3C=N2)cc(OC)c1OC | 12.1 |
| CN1CCCN=C1C=Cc1cccs1 | 8.55 |
| CC(=O)N1C(=O)N(C(C)=O)C(O)C1O (stereo not given) | 6.42 |
| CCCCCC(=O)OC1(C(C)=O)CCC2C3CCC4=CC(=O)CCC4(C)C3CCC21C (stereo not given) | 21.2 |
| Cc1cccc[n+]1CC(=O)c1ccccc1 | 8.36 |
| CC(=O)NC(C)c1ccc(O)cc1 (stereo not given) | 7.19 |
| CCCCNC | 7.29 |
| Cc1cc(C)cc(-c2nnc(-c3ccc(-c4ccccc4)cc3)o2)c1 | 20.5 |
| COc1nc(N2CCCC2)[nH]c(=O)n1 | 7.43 |
| CN(C)c1ccccn1 | 6.81 |
| CC(=O)C(C)(C)N | 5.58 |
| NC(=S)NN=C1CCCC1 | 8 |
| CCn1c(C)c(C(C)=O)c(C(C)=O)c1C | 9.56 |
| Cc1cc(C)nc(N=C(N)Nc2cccc3ccccc23)n1 | 10.5 |

| Structure (SMILES) | LC retention time [min] |
| --- | --- |
| Cc1ccc(-n2ccnc2)cc1 | 8.52 |
| c1ccc(-c2ccnc(-c3cc(-c4ccccc4)ccn3)c2)cc1 | 14.9 |
| Cc1[nH]c2ccccc2c1CCNC(=O)CN1C(=O)c2ccccc2C1=O | 12.4 |
| NC(=S)NC(N)=S | 6.5 |
| CCN(CC)c1ccc(CNCCCN(C)C)cc1 | 7.76 |
| CCNCc1ccccc1 | 7.68 |
| CC(C)(C=O)CN1CCCC1 | 6.76 |
| O=C(C=Cc1ccccc1)c1ccc(O)c(O)c1O | 12.6 |
| CCCCn1ccnc1 | 7.5 |
| CN1N=C(C(=O)O)CCC1=O | 3.29 |
| O=C1CC(N2CCN(C(c3ccccc3)c3ccccc3)CC2)C(=O)N1c1cccc2ccccc12 (stereo not given) | 12.4 |
| CCCCOC(=O)C1C(C)=NC(=O)NC1c1ccc(CC)cc1 (stereo not given) | 14.3 |
| CC1(N)CCC(C(C)(C)N)CC1 (stereo not given) | 7.19 |
| O=C(NC(Cc1ccccc1)C(=O)NCc1ccco1)c1ccccc1 (stereo not given) | 12.8 |
| CCCNCCN | 7 |
| COc1ccc(C(=O)C=Cc2ccc(OC)c(COc3cccc(C)c3C)c2)cc1 | 19.9 |
| Cc1cccc(C(=O)NNC(=O)c2ccccc2C(=O)c2ccccc2)c1 | 13.3 |
| S=C(NCc1ccc2[nH]c3c(c2c1)CCCC3)Nc1cccc2ccccc12 | 16 |
| CCN(CC)C(=O)c1cc(C)nc2c1c(=O)n(CC(=O)Nc1ccccc1)c(=O)n2C | 12 |
| CN(C)CCC=C1c2ccccc2C=Cc2ccccc21 | 11.6 |
| CCCC(CCC)C(=O)NC1CCN(Cc2ccccc2)CC1 | 10.2 |

| Structure (SMILES) | LC retention time [min] |
| --- | --- |
| CN(C)c1ccc(C(=O)N2CCCC2)cc1 | 10.4 |
| CNc1ccccn1 | 6.54 |
| CCCCCCCCCCN(C)C | 12 |
| CC(=O)C=CC=C(C)CCC=C(C)C | 17.1 |
| S=C(Nc1cccnc1)N1CCc2ccccc21 | 9.72 |
| Cc1ncc(C[n+]2csc(CCOP(=O)(O)OP(=O)(O)O)c2C)c(N)n1 | 1.62 |
| CCCCCCC(C)NCCO (stereo not given) | 9.31 |
| Oc1cccc(-c2cc(-c3ccccc3)c3c(ccc4ncccc43)n2)c1 | 13.7 |
| O=CN1CCNCC1 | 2.79 |
| CC(=O)NC(Cc1ccc(O)cc1)C(N)=O (stereo not given) | 6.07 |
| C1=Nc2ccccc2C(c2cccc3ccccc23)C1c1ccc2ccccc2n1 (stereo not given) | 12.9 |
| Cn1cccc1C=NNC(=O)CCCC(=O)NN=Cc1cccn1C | 10.2 |
| CN1CCC(NCc2cccnc2)CC1 | 7.19 |
| CC(=NNc1ccccc1)C1=C(C)NC(=O)NC1c1ccccc1 (stereo not given) | 10.8 |
| O=C(Nc1ccccc1)C(=O)NC(CO)(CO)CO | 8.16 |
| CN(C)c1ccc(N=C2C=CC(=Nc3ccc(N(C)C)cc3)C=C2)cc1 | 9.47 |
| Cn1c(C(=O)N2CCN(C(c3ccccc3)c3ccccc3)CC2)cc(=O)n(C)c1=O | 11.7 |
| Cc1nn(CC(=O)NC2CC(C)(C)NC(C)(C)C2)c(=O)c2ccccc12 | 8.35 |
| O=C(c1cccc(C(=O)N(Cc2ccccc2)c2ccccn2)c1)N(Cc1ccccc1)c1ccccn1 | 15.4 |
| COC(=O)CCNC(C)Cc1ccccc1 (stereo not given) | 8.9 |
| C1CN(CCN2CCOCC2)CCO1 | 6.81 |

Continued, values first:

| LC retention time [min] | Structure (SMILES) |
| --- | --- |
| 13.3 | Cc1cccc2c1CC(C)(C)NC2=S |
| 6.05 | Nc1nc2c([nH]c(=O)n2C2CC(O)C(CO)O2)c(=O)[nH]1 (stereo not given) |
| 14.2 | O=C1c2ccccc2-c2nc3ccccc3cc21 |
| 18.5 | Cc1ccsc1C=CC(=O)c1ccc2ccccc2c1 |
| 14.4 | Cc1cccc(-n2c(C)cc(C=NNC(N)=S)c2C)c1C |
| 8.74 | CC(=NN=C(C)c1cccc(N)c1)c1cccc(N)c1 |
| 13 | Cc1ccc(C(=O)c2cccc(N)c2)cc1C |
| 13.2 | Cn1c2c(c(=O)n(C)c1=O)C1c3ccccc3OCC1C(C)(C)O2 (stereo not given) |
| 8.13 | Cc1[nH]c2ccc(C(=O)O)cc2c1CC(=O)O |
| 7.81 | CCC(NC(C)C)C(O)c1ccc(O)c2[nH]c(=O)ccc12 (stereo not given) |
| 6.87 | CN(C)C(=O)c1ccc(N)cc1 |
| 8.79 | CCC(O)(CC)c1ccccc1N |
| 9.54 | CCCc1ccccc1N |
| 11.3 | COC(=O)c1[nH]c2ccccc2c1C(=O)OC |
| 14 | CCOC(=O)c1ccc(Nc2c(N)c(=O)oc3ccccc23)cc1 |
| 9.62 | COc1ccc(N2C(=O)C=CC2=O)cc1 |
| 12.6 | Cc1cc(C)c2c(O)c(Cc3ccccc3)c(=O)[nH]c2c1 |
| 7.05 | CC1NC(=O)N(c2cccc(N)c2)C1=O (stereo not given) |
| 14.3 | COC(=O)c1[nH]c2ccccc2c1-n1cccc1 |
| 9.3 | Nc1ccc2c(c1)nc(-c1ccccc1)c1cc(N)ccc12 |
| 3.95 | NC(=O)NCc1ccccn1 |

| LC retention time [min] | Structure (SMILES) |
| --- | --- |
| 8.31 | C=Cc1ccc(N)cc1 |
| 7.03 | CN(C)c1ccncc1N |
| 13.6 | Nc1ccc2c(c1)C(=O)N(c1ccc3ccccc3c1)C2=O |
| 7.41 | Cc1cc[n+](CCC(=O)O)c2ccccc12 |
| 7.27 | Nc1ccc2c(c1)COC2=O |
| 7.89 | Oc1ccccc1N1CCCCC1 |
| 15.7 | CC1CCC(c2cn(C)c3ccccc23)C(=O)C1 (stereo not given) |
| 7.26 | O=C1CCCN1CP(=O)(O)CCc1ccccc1 |
| 12.4 | Nc1ccccc1C(=O)N1CCc2ccccc21 |
| 8.26 | Cc1cccc(N(C)C)c1 |
| 9.45 | NC1=NC(=Nc2ccc3c(c2)OCCO3)c2ccccc21 |
| 7.91 | Cc1cccc(CN)c1 |
| 8.72 | CCN(CC)C(=O)N1CCN(c2ccc(N)cc2)CC1 |
| 5.27 | Cn1ccc(C(=O)O)cc1=O |
| 8.37 | CCN(CC)CCNc1c(N)c(=O)oc2ccccc12 |
| 7.87 | Cc1cc(C)nc(NC(N)=NCc2cccnc2)n1 |
| 13.7 | NC(=S)NN=Cc1c2ccccc2cc2ccccc12 |
| 14.2 | Cc1ccc(Nc2cc(=O)oc3ccccc23)cc1C |
| 7.02 | NC(CO)c1ccccc1 (stereo not given) |
| 6.46 | Cc1cccc(C)n1 |
